Measured values: PubChem BioAssay (NCI)
Where “and” joins values, the source holds several entries; their conditions need not be identical. Equal entries are not always repeated.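 Cultured in 96-well plates, cells were exposed to test compound for 48 hours across five concentrations. Here, GI50 denotes the concentration required for 50% inhibition of growth. TGI is the concentration that stops growth completely.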

system: M19-MEL melanoma; test: NCI-60 cell line screen, 48 h

| Structure (SMILES) | TGI [µM] |
| --- | --- |
| COc1cc(/C=C2\[C@H]3c4c(c(OC)c(C)c(OC)c4OC)CC(C(=O)N2Cc2ccccc2)N3C)c(OC)c(C)c1OC | 33.1 |
| CN(C)C(=S)SSC(=S)N(C)C | > 40 |
| O=C(N/C(=C\c1ccc([N+](=O)[O-])cc1)c1nc2ccccc2[nH]1)c1ccccc1 | > 100 |
| COC(=O)/C([Se]c1c(C)cc(C)cc1C)=C(/[Se]c1c(C)cc(C)cc1C)C(=O)OC | > 100 |
| NC(=O)C(=O)CC(=O)c1ccccc1NC1=CC(=O)C(=O)c2ccccc21 | 22.8 |
| Cc1cc2c(c(C(N)=O)c1C)-c1ccccc1C2=O | > 100 |
| COC(=O)/C(=N/O)C(C(=O)C=C(C)C)C(=O)C(=O)Nc1nc2ccc([N+](=O)[O-])cc2s1 (stereo unspecified) | > 100 |
| Cc1ccccc1C1=[N+]([O-])c2ccc(Cl)cc2C1=O | 21.2 |
| CCOC(=O)NC(=O)c1cn(C2CCCCC2)c(=O)[nH]c1=O | > 100 |

system: MALME-3M melanoma; test: NCI-60 cell line screen, 48 h

| Structure (SMILES) | TGI | GI50 [µM] |
| --- | --- | --- |
| Nc1ccccc1C(=O)/C=C/c1c(O)ccc2ccccc12 | > 100 µM | – |
| CCC1CN2CCc3cc(OC)c(OC)cc3C2CC1CC1c2cc(OC)c(OC)cc2CCN1C(=O)C1CCCN1 (stereo unspecified) | 37.3 µM | – |
| CC(C(=O)c1ccc(Cl)cc1)/C(=N/NC(=O)NN)C(=O)Nc1cccc(C(F)(F)F)c1 (stereo unspecified) | > 100 µM | – |
| CCOP(=O)(OCC)C(C(=O)OC)C(=O)C(=O)Nc1ccc(Cl)cc1Cl (stereo unspecified) | > 100 µM | – |
| CC(C)=C1CCC(CN(C)C)C1=O (stereo unspecified) | 30.2 µM | – |
| COc1cccc(/C=N/[N-]C(=O)c2ccncc2)c1[O-].COc1cccc(/C=N/[N-]C(=O)c2ccncc2)c1[O-].[O]=[U](=[O])([OH2+])[OH2+] | > 66.3 µM | 12.8 |
| ClC(Cl)=C1C(=C(Cl)Cl)C(Cl)(Cl)C1(Cl)Cl | 5.9 µM | – |
| CC(C)(C)c1ccc2c(c1)S(=O)(=O)Nc1ccc(Cl)cc1NS(=O)(=O)c1cc(C(C)(C)C)ccc1OCCOCCOCCO2 | 80 µM | – |
| CO[C@H]1Nc2c(ccc(C)c2O)C(=O)N2C=C(/C=C/C(N)=O)C[C@@H]12 | 0.0591 µM | – |
| CCNC(=O)/C(=C/c1ccc(OC)cc1)c1cc(OC)c(OC)c(OC)c1 | > 100 µM | – |
| N#CC(=Nc1ccccc1N(C(=O)c1ccccc1)C(=O)c1ccccc1)c1ccccc1 | > 100 µM | – |
| COC(=O)C(=O)C(C(C)=O)C(=O)NCc1ccc(OC)c(OC)c1 (stereo unspecified) | > 100 µM | – |
| Nc1c(-c2ccccc2-c2c(N)[n+]([O-])c3ccccc3[n+]2[O-])[n+]([O-])c2ccccc2[n+]1[O-] | > 100 µM | – |
| CCOC(=O)NC(=O)c1cn(C(CC)COC(=O)NCCCCCCNC(=O)OCC(CC)n2cc(C(=O)NC(=O)OCC)c(=O)[nH]c2=O)c(=O)[nH]c1=O (stereo unspecified) | > 100 µM | – |
| O=C(CC(=O)C1CCOC1=O)C(=O)Nc1cccc(Cl)c1 (stereo unspecified) | > 100 µM | – |
| CCN1c2ccccc2-c2c3c1cc(C)cc3c1ccccc1[n+]2CC | 7.73 µM | – |

| Structure (SMILES) | TGI | GI50 [µM] |
| --- | --- | --- |
| Cc1cccc(C2=C/C(=C(\SS/C(C(=O)c3ccc(OCC(=O)O)c(Cl)c3Cl)=C3\C=C(c4cccc(C)c4)SS3)C(=O)c3ccc(OCC(=O)O)c(Cl)c3Cl)SS2)c1 | 74.9 µM | – |
| CC(=O)N1CCN(c2ccc(OCC3COC(Cn4ccnc4)(c4ccc(Cl)cc4Cl)O3)cc2)CC1 (stereo unspecified) | > 100 µM | – |
| O=C(Cc1nc2c3c(ccc2[nH]c1=O)C(=O)c1ccccc1C3=O)C(=O)Nc1ccccc1[N+](=O)[O-] | 36.6 µM | – |
| CC1=C(C#N)C(=O)CC(c2ccc(Cl)cc2)N(C)N1 (stereo unspecified) | > 100 µM | – |
| Nc1nc(-c2ccc(Cl)c([N+](=O)[O-])c2)cs1 | > 100 µM | – |
| COc1cc(/C=C2\[C@H]3c4c(c(OC)c(C)c(OC)c4OC)CC(C(=O)N2Cc2ccccc2)N3C)c(OC)c(C)c1OC | 47.3 µM | – |
| CN(C)C(=S)SSC(=S)N(C)C | 34.7 µM and 50.1 µM and 31 µM | 16.3 |
| O=C(N/C(=C\c1ccc([N+](=O)[O-])cc1)c1nc2ccccc2[nH]1)c1ccccc1 | > 100 µM | – |
| COC(=O)/C([Se]c1c(C)cc(C)cc1C)=C(/[Se]c1c(C)cc(C)cc1C)C(=O)OC | > 100 µM | – |
| NC(=O)C(=O)CC(=O)c1ccccc1NC1=CC(=O)C(=O)c2ccccc21 | > 59 µM | – |
| Cc1cc2c(c(C(N)=O)c1C)-c1ccccc1C2=O | > 100 µM | – |
| COC(=O)/C(=N/O)C(C(=O)C=C(C)C)C(=O)C(=O)Nc1nc2ccc([N+](=O)[O-])cc2s1 (stereo unspecified) | > 100 µM | – |
| Cc1ccccc1C1=[N+]([O-])c2ccc(Cl)cc2C1=O | 30.6 µM | – |
| Cc1[nH]c2ccccc2c1C1Cc2ccccc2N1C(=O)C#Cc1ccc([N+](=O)[O-])cc1 (stereo unspecified) | > 100 µM | – |
| CCOC(=O)NC(=O)c1cn(C2CCCCC2)c(=O)[nH]c1=O | > 100 µM | – |

system: MDA-MB-231 breast; test: NCI-60 cell line screen, 48 h

| Structure (SMILES) | TGI |
| --- | --- |
| ClC(Cl)=C1C(=C(Cl)Cl)C(Cl)(Cl)C1(Cl)Cl | 4.81 µM |
| CO[C@H]1Nc2c(ccc(C)c2O)C(=O)N2C=C(/C=C/C(N)=O)C[C@@H]12 | 0.0333 µM |
| CCNC(=O)/C(=C/c1ccc(OC)cc1)c1cc(OC)c(OC)c(OC)c1 | > 86.1 µM |
| CN(C)C(=S)SSC(=S)N(C)C | 42.9 µM and 32 µM and 53.5 µM |

system: NCI-H460 lung; test: NCI-60 cell line screen, 48 h

| Structure (SMILES) | TGI | GI50 |
| --- | --- | --- |
| Nc1ccccc1C(=O)/C=C/c1c(O)ccc2ccccc12 | > 100 µM | – |
| CCC1CN2CCc3cc(OC)c(OC)cc3C2CC1CC1c2cc(OC)c(OC)cc2CCN1C(=O)C1CCCN1 (stereo unspecified) | 74.8 µM | – |
| CC(C(=O)c1ccc(Cl)cc1)/C(=N/NC(=O)NN)C(=O)Nc1cccc(C(F)(F)F)c1 (stereo unspecified) | > 100 µM | – |
| CCOP(=O)(OCC)C(C(=O)OC)C(=O)C(=O)Nc1ccc(Cl)cc1Cl (stereo unspecified) | > 100 µM | – |
| CC(C)=C1CCC(CN(C)C)C1=O (stereo unspecified) | > 100 µM | – |
| COc1cccc(/C=N/[N-]C(=O)c2ccncc2)c1[O-].COc1cccc(/C=N/[N-]C(=O)c2ccncc2)c1[O-].[O]=[U](=[O])([OH2+])[OH2+] | > 40.3 µM | 3.46 µM |
| ClC(Cl)=C1C(=C(Cl)Cl)C(Cl)(Cl)C1(Cl)Cl | 16.6 µM | – |
| CC(C)(C)c1ccc2c(c1)S(=O)(=O)Nc1ccc(Cl)cc1NS(=O)(=O)c1cc(C(C)(C)C)ccc1OCCOCCOCCO2 | > 100 µM | – |
| CO[C@H]1Nc2c(ccc(C)c2O)C(=O)N2C=C(/C=C/C(N)=O)C[C@@H]12 | 31.1 µM | – |
| CCNC(=O)/C(=C/c1ccc(OC)cc1)c1cc(OC)c(OC)c(OC)c1 | 57 µM | – |
| N#CC(=Nc1ccccc1N(C(=O)c1ccccc1)C(=O)c1ccccc1)c1ccccc1 | > 100 µM | – |
| COC(=O)C(=O)C(C(C)=O)C(=O)NCc1ccc(OC)c(OC)c1 (stereo unspecified) | > 100 µM | – |
| Nc1c(-c2ccccc2-c2c(N)[n+]([O-])c3ccccc3[n+]2[O-])[n+]([O-])c2ccccc2[n+]1[O-] | 18.5 µM | – |
| CCOC(=O)NC(=O)c1cn(C(CC)COC(=O)NCCCCCCNC(=O)OCC(CC)n2cc(C(=O)NC(=O)OCC)c(=O)[nH]c2=O)c(=O)[nH]c1=O (stereo unspecified) | > 100 µM | – |
| O=C(CC(=O)C1CCOC1=O)C(=O)Nc1cccc(Cl)c1 (stereo unspecified) | > 100 µM | – |
| CCN1c2ccccc2-c2c3c1cc(C)cc3c1ccccc1[n+]2CC | 2.73 µM | – |
| Cc1cccc(C2=C/C(=C(\SS/C(C(=O)c3ccc(OCC(=O)O)c(Cl)c3Cl)=C3\C=C(c4cccc(C)c4)SS3)C(=O)c3ccc(OCC(=O)O)c(Cl)c3Cl)SS2)c1 | > 68.1 µM | – |
| CC(=O)N1CCN(c2ccc(OCC3COC(Cn4ccnc4)(c4ccc(Cl)cc4Cl)O3)cc2)CC1 (stereo unspecified) | > 100 µM | – |
| O=C(Cc1nc2c3c(ccc2[nH]c1=O)C(=O)c1ccccc1C3=O)C(=O)Nc1ccccc1[N+](=O)[O-] | 97.6 µM | – |
| CC1=C(C#N)C(=O)CC(c2ccc(Cl)cc2)N(C)N1 (stereo unspecified) | > 100 µM | – |
| Nc1nc(-c2ccc(Cl)c([N+](=O)[O-])c2)cs1 | > 100 µM | – |
| COc1cc(/C=C2\[C@H]3c4c(c(OC)c(C)c(OC)c4OC)CC(C(=O)N2Cc2ccccc2)N3C)c(OC)c(C)c1OC | 32 µM | – |
| CN(C)C(=S)SSC(=S)N(C)C | 25.2 µM and 13.6 µM and 53 µM | 0.365 µM and 0.324 µM and 1.43 µM |
